# Values quoted from earlier work in patent publication US8657798B2, “Anti-inflammatory analgesic adhesive patch for external use” (Teikoku Seiyaku Co., Ltd., priority 2010, dated 2014).
# Settings: compared with diclofenac sodium
substance,measurement,value
Diclofenac hydroxyethylpyrrolidine,water solubility,better water solubility than diclofenac sodium
